System: surface of the skin
Assay: adsorption of lauryl ether sulfate on the skin (simulated washing operation, forearm, desorption, ion-pair chromatography)
Format: in vivo, human
Details: significance: Yes
Experimental: The method which we have developed for determining the adsorption of lauryl ether sulfate on the skin simulates a washing operation as occurs, for example, during daily showering: Firstly, the inner sides of the forearms are divided into a number of test areas using insulating tape. The area to be treated is then wetted with approximately 50 ml of mains water (T=38±1° C.). The lauryl ether sulfate is then applied. Throughout the application period of 45 s, the test subject distributes the lauryl ether sulfate over the area using 2 fingers in uniform circular movements. At the end of the application period, the test area is rinsed with approximately 950 ml of mains water (T=38±1° C.) and carefully patted dry using a clean cellulose cloth. For the desorption, a plastic ring with an internal diameter of 25 mm is pressed firmly onto the inner side of the test subject's forearm. 1000 μl of a 1% Triton X-100 solution are then introduced into the ring. The tip of a round Teflon-coated spatula is then used to scrape the skin uniformly for 1 min. This leads to suspension of corneocytes. To work up the samples for analysis, the samples are centrifuged and 800 μl of the supernatant are drawn off. The supernatant is analyzed with regard to its lauryl ether sulfate content using ion-pair chromatography. The effectiveness of the desorption method described is 79%, i.e. 79% of the amount of lauryl ether sulfate actually present on the skin are included.

[1] = cosurfactant concentration 3% added to a lauryl ether sulfate solution

Molecule	Effect on the adsorbed amount of lauryl ether sulfate (Reduction by) [1]	also measured
Sodium cocoamphoacetate	Reduction by 27%	
CCCCCCCCCCO[C@@H]1O[C@H](CO)[C@@H](O)[C@H](O)[C@H]1O [Decyl glucoside]		Effect on the adsorbed amount of lauryl ether sulfate (Reduction by) (cosurfactant concentration 5% added to a lauryl ether sulfate solution): Reduction by 29%
Cocamidopropylbetaine	Reduction by 31%	
Disodium laureth sulfosuccinate	Reduction by 28%	
CCCCCCCCCCCC(=O)O [Lauric acid]		Effect on the adsorbed amount of lauryl ether sulfate (Reduction by) (cosurfactant concentration 1%, pH9, added to a lauryl ether sulfate solution): Reduction by 15%
